Measured values published in the supplement of paper PMC10883282.

Columns and labels:
Experiment in all cases: relative viability vs DMSO control (72 h) (fraction); higher = more viable cells
RD-ES = system: RD-ES
In short: (§1)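 ATPLite readings, expressed as percent growth and averaged over up to triplicate wells, provided relative viability. Before reading, sarcoma cell lines seeded in 384-well plates to reach 80–90% confluence received 2.5 µl of serially diluted compound after 24 h, from source plates of 10 mM to 0.0002 mM. Plates were held 72 h at 37 °C, 5% CO2, with 0.1% DMSO as vehicle and a 5 µM positive control. The data were rescaled to 1 for full and 0 for none.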

SYO-1 = system: SYO-1
In short: as §1

SK-ES-1 = system: SK-ES-1
In short: as §1

G401 = system: G401
In short: as §1

VA-ES-BJ = system: VA-ES-BJ
In short: as §1

KHOS-240S = system: KHOS-240S
In short: as §1

HT1080 = system: HT1080
In short: as §1

RD = system: RD
In short: as §1

SW982 = system: SW982
In short: as §1

SW1353 = system: SW1353
In short: as §1

SK-LMS-1 = system: SK-LMS-1
In short: as §1

MES-SA = system: MES-SA
In short: as §1

COc1cc(N2CCC(N3CCN(C)CC3)CC2)ccc1Nc1ncc(Cl)c(Nc2ccccc2P(C)(C)=O)n1 [Brigatinib]
Conditions	relative viability
G401, 0.00017 µM	0.983
G401, 0.00051 µM	0.972
G401, 0.00152 µM	0.9624
G401, 0.00457 µM	0.9721
G401, 0.01372 µM	0.941
G401, 0.04115 µM	0.909
G401, 0.1235 µM	0.923
G401, 0.3704 µM	0.764
G401, 1.111 µM	0.626
G401, 3.333 µM	0.261
G401, 10 µM	0.0657
HT1080, 0.00017 µM	1.01
HT1080, 0.00051 µM	1.03
HT1080, 0.00152 µM	1.02
HT1080, 0.00457 µM	1.01
HT1080, 0.01372 µM	1
HT1080, 0.04115 µM	0.984
HT1080, 0.1235 µM	1.01
HT1080, 0.3704 µM	1.03
HT1080, 1.111 µM	0.93
HT1080, 3.333 µM	0.573
HT1080, 10 µM	0.151
KHOS-240S, 0.00017 µM	1.04
KHOS-240S, 0.00051 µM	1.04
KHOS-240S, 0.00152 µM	1.02
KHOS-240S, 0.00457 µM	1.01
KHOS-240S, 0.01372 µM	0.989
KHOS-240S, 0.04115 µM	0.978
KHOS-240S, 0.1235 µM	0.92
KHOS-240S, 0.3704 µM	0.754
KHOS-240S, 1.111 µM	0.445
KHOS-240S, 3.333 µM	0.0468
KHOS-240S, 10 µM	0.0051
MES-SA, 0.00017 µM	0.864
MES-SA, 0.00051 µM	0.843
MES-SA, 0.00152 µM	0.866
MES-SA, 0.00457 µM	0.893
MES-SA, 0.01372 µM	0.859
MES-SA, 0.04115 µM	0.894
MES-SA, 0.1235 µM	0.956
MES-SA, 0.3704 µM	1.01
MES-SA, 1.111 µM	0.948
MES-SA, 3.333 µM	0.385
MES-SA, 10 µM	0.135
RD, 0.00017 µM	1.06
RD, 0.00051 µM	1.06
RD, 0.00152 µM	1.07
RD, 0.00457 µM	1.05
RD, 0.01372 µM	1.05
RD, 0.04115 µM	0.978
RD, 0.1235 µM	0.769
RD, 0.3704 µM	0.459
RD, 1.111 µM	0.342
RD, 3.333 µM	0.168
RD, 10 µM	0.0473
RD-ES, 0.00017 µM	0.965
RD-ES, 0.00051 µM	0.968
RD-ES, 0.00152 µM	0.955
RD-ES, 0.00457 µM	0.918
RD-ES, 0.01372 µM	0.873
RD-ES, 0.04115 µM	0.839
RD-ES, 0.1235 µM	0.701
RD-ES, 0.3704 µM	0.457
RD-ES, 1.111 µM	0.317
RD-ES, 3.333 µM	0.165
RD-ES, 10 µM	0.0867
SK-ES-1, 0.00017 µM	0.96
SK-ES-1, 0.00051 µM	0.986
SK-ES-1, 0.00152 µM	0.971
SK-ES-1, 0.00457 µM	0.973
SK-ES-1, 0.01372 µM	1
SK-ES-1, 0.04115 µM	0.951
SK-ES-1, 0.1235 µM	0.825
SK-ES-1, 0.3704 µM	0.496
SK-ES-1, 1.111 µM	0.251
SK-ES-1, 3.333 µM	0.0717
SK-ES-1, 10 µM	0.0369
SK-LMS-1, 0.00017 µM	1.04
SK-LMS-1, 0.00051 µM	1
SK-LMS-1, 0.00152 µM	1.02
SK-LMS-1, 0.00457 µM	0.986
SK-LMS-1, 0.01372 µM	0.998
SK-LMS-1, 0.04115 µM	1.02
SK-LMS-1, 0.1235 µM	1.02
SK-LMS-1, 0.3704 µM	0.924
SK-LMS-1, 1.111 µM	0.757
SK-LMS-1, 3.333 µM	0.556
SK-LMS-1, 10 µM	0.331
SW982, 0.00017 µM	1.03
SW982, 0.00051 µM	1.03
SW982, 0.00152 µM	1.03
SW982, 0.00457 µM	1.01
SW982, 0.01372 µM	0.954
SW982, 0.04115 µM	0.869
SW982, 0.1235 µM	0.695
SW982, 0.3704 µM	0.383
SW982, 1.111 µM	0.122
SW982, 3.333 µM	0.00817
SW982, 10 µM	0.00797
SW1353, 0.00017 µM	0.909
SW1353, 0.00051 µM	0.922
SW1353, 0.00152 µM	0.907
SW1353, 0.00457 µM	0.903
SW1353, 0.01372 µM	0.896
SW1353, 0.04115 µM	0.851
SW1353, 0.1235 µM	0.824
SW1353, 0.3704 µM	0.647
SW1353, 1.111 µM	0.449
SW1353, 3.333 µM	0.147
SW1353, 10 µM	0.0131
SYO-1, 0.00017 µM	0.95
SYO-1, 0.00051 µM	0.952
SYO-1, 0.00152 µM	0.922
SYO-1, 0.00457 µM	0.889
SYO-1, 0.01372 µM	0.846
SYO-1, 0.04115 µM	0.768
SYO-1, 0.1235 µM	0.706
SYO-1, 0.3704 µM	0.501
SYO-1, 1.111 µM	0.239
SYO-1, 3.333 µM	0.0457
SYO-1, 10 µM	-0.0131
VA-ES-BJ, 0.00017 µM	0.946
VA-ES-BJ, 0.00051 µM	0.945
VA-ES-BJ, 0.00152 µM	0.943
VA-ES-BJ, 0.00457 µM	0.941
VA-ES-BJ, 0.01372 µM	0.983
VA-ES-BJ, 0.04115 µM	0.91
VA-ES-BJ, 0.1235 µM	0.865
VA-ES-BJ, 0.3704 µM	0.662
VA-ES-BJ, 1.111 µM	0.272
VA-ES-BJ, 3.333 µM	0.144
VA-ES-BJ, 10 µM	0.125

Cc1cc2c(F)c(Oc3ncnn4cc(OC[C@@H](C)OC(=O)[C@H](C)N)c(C)c34)ccc2[nH]1 [Brivanib_alaninate]
Conditions	relative viability
G401, 0.00017 µM	0.968
G401, 0.00051 µM	0.967
G401, 0.00152 µM	1
G401, 0.00457 µM	1.01
G401, 0.01372 µM	0.974
G401, 0.04115 µM	0.995
G401, 0.1235 µM	0.982
G401, 0.3704 µM	0.976
G401, 1.111 µM	1
G401, 3.333 µM	0.953
G401, 10 µM	0.8674
HT1080, 0.00017 µM	1.05
HT1080, 0.00051 µM	1.04
HT1080, 0.00152 µM	1.06
HT1080, 0.00457 µM	1.03
HT1080, 0.01372 µM	1.04
HT1080, 0.04115 µM	1.03
HT1080, 0.1235 µM	1.04
HT1080, 0.3704 µM	1.054
HT1080, 1.111 µM	1.047
HT1080, 3.333 µM	0.99
HT1080, 10 µM	0.978
KHOS-240S, 0.00017 µM	1.016
KHOS-240S, 0.00051 µM	1.04
KHOS-240S, 0.00152 µM	1.03
KHOS-240S, 0.00457 µM	1.04
KHOS-240S, 0.01372 µM	1.052
KHOS-240S, 0.04115 µM	1.03
KHOS-240S, 0.1235 µM	1.03
KHOS-240S, 0.3704 µM	1.04
KHOS-240S, 1.111 µM	1.007
KHOS-240S, 3.333 µM	0.93
KHOS-240S, 10 µM	0.738
MES-SA, 0.00017 µM	0.919
MES-SA, 0.00051 µM	0.939
MES-SA, 0.00152 µM	0.939
MES-SA, 0.00457 µM	0.929
MES-SA, 0.01372 µM	0.927
MES-SA, 0.04115 µM	0.911
MES-SA, 0.1235 µM	0.92
MES-SA, 0.3704 µM	0.942
MES-SA, 1.111 µM	0.956
MES-SA, 3.333 µM	0.829
MES-SA, 10 µM	0.5146
RD, 0.00017 µM	1.07
RD, 0.00051 µM	1.07
RD, 0.00152 µM	1.1
RD, 0.00457 µM	1.09
RD, 0.01372 µM	1.1
RD, 0.04115 µM	1.08
RD, 0.1235 µM	1.09
RD, 0.3704 µM	1.1
RD, 1.111 µM	1.12
RD, 3.333 µM	1.04
RD, 10 µM	0.874
RD-ES, 0.00017 µM	0.953
RD-ES, 0.00051 µM	0.9804
RD-ES, 0.00152 µM	0.983
RD-ES, 0.00457 µM	0.983
RD-ES, 0.01372 µM	0.996
RD-ES, 0.04115 µM	0.989
RD-ES, 0.1235 µM	0.962
RD-ES, 0.3704 µM	1
RD-ES, 1.111 µM	0.987
RD-ES, 3.333 µM	0.9601
RD-ES, 10 µM	0.926
SK-ES-1, 0.00017 µM	1.07
SK-ES-1, 0.00051 µM	1.07
SK-ES-1, 0.00152 µM	1.06
SK-ES-1, 0.00457 µM	1.05
SK-ES-1, 0.01372 µM	1.05
SK-ES-1, 0.04115 µM	1.03
SK-ES-1, 0.1235 µM	1.06
SK-ES-1, 0.3704 µM	1.05
SK-ES-1, 1.111 µM	1.044
SK-ES-1, 3.333 µM	0.991
SK-ES-1, 10 µM	0.921
SK-LMS-1, 0.00017 µM	0.967
SK-LMS-1, 0.00051 µM	0.995
SK-LMS-1, 0.00152 µM	0.978
SK-LMS-1, 0.00457 µM	1.01
SK-LMS-1, 0.01372 µM	1.01
SK-LMS-1, 0.04115 µM	0.987
SK-LMS-1, 0.1235 µM	0.989
SK-LMS-1, 0.3704 µM	0.998
SK-LMS-1, 1.111 µM	1
SK-LMS-1, 3.333 µM	0.606
SK-LMS-1, 10 µM	0.512
SW982, 0.00017 µM	1.05
SW982, 0.00051 µM	1.03
SW982, 0.00152 µM	1.04
SW982, 0.00457 µM	1.04
SW982, 0.01372 µM	1.05
SW982, 0.04115 µM	1.05
SW982, 0.1235 µM	1.06
SW982, 0.3704 µM	1.04
SW982, 1.111 µM	1.09
SW982, 3.333 µM	1.08
SW982, 10 µM	1.12
SW1353, 0.00017 µM	0.949
SW1353, 0.00051 µM	0.952
SW1353, 0.00152 µM	0.999
SW1353, 0.00457 µM	0.928
SW1353, 0.01372 µM	0.97
SW1353, 0.04115 µM	0.963
SW1353, 0.1235 µM	0.94
SW1353, 0.3704 µM	0.958
SW1353, 1.111 µM	0.97
SW1353, 3.333 µM	0.984
SW1353, 10 µM	0.977
SYO-1, 0.00017 µM	0.934
SYO-1, 0.00051 µM	0.937
SYO-1, 0.00152 µM	0.94
SYO-1, 0.00457 µM	0.927
SYO-1, 0.01372 µM	0.9194
SYO-1, 0.04115 µM	0.914
SYO-1, 0.1235 µM	0.906
SYO-1, 0.3704 µM	0.903
SYO-1, 1.111 µM	0.846
SYO-1, 3.333 µM	0.673
SYO-1, 10 µM	0.586
VA-ES-BJ, 0.00017 µM	1.02
VA-ES-BJ, 0.00051 µM	1.02
VA-ES-BJ, 0.00152 µM	1.03
VA-ES-BJ, 0.00457 µM	1.03
VA-ES-BJ, 0.01372 µM	1.04
VA-ES-BJ, 0.04115 µM	0.984
VA-ES-BJ, 0.1235 µM	1.02
VA-ES-BJ, 0.3704 µM	1.04
VA-ES-BJ, 1.111 µM	1.07
VA-ES-BJ, 3.333 µM	1.03
VA-ES-BJ, 10 µM	0.983
